Experimental data taken from patent US20100317630A1, “NOVEL HETEROCYCLIC COMPOUNDS AS MGLU5 ANTAGONISTS” (RECORDATI IRELAND LIMITED, priority 2009, published 2010).

Legend:
[1] = target: T1, mGlu5 receptor (Rattus norvegicus, UniProt P31424); test: Radioligand binding assay at metabotropic glutamate receptor 5 in rat brain ([3H]MPEP, forebrain membranes); details: 4 nM [3H]MPEP, read-out: affinity (Ki) for mGlu5 receptor
T1 construct: from tissue; host or cells: forebrain (cortex, striatum and hippocampus) of male Sprague Dawley rats
T1 sequence (P31424 21-1203): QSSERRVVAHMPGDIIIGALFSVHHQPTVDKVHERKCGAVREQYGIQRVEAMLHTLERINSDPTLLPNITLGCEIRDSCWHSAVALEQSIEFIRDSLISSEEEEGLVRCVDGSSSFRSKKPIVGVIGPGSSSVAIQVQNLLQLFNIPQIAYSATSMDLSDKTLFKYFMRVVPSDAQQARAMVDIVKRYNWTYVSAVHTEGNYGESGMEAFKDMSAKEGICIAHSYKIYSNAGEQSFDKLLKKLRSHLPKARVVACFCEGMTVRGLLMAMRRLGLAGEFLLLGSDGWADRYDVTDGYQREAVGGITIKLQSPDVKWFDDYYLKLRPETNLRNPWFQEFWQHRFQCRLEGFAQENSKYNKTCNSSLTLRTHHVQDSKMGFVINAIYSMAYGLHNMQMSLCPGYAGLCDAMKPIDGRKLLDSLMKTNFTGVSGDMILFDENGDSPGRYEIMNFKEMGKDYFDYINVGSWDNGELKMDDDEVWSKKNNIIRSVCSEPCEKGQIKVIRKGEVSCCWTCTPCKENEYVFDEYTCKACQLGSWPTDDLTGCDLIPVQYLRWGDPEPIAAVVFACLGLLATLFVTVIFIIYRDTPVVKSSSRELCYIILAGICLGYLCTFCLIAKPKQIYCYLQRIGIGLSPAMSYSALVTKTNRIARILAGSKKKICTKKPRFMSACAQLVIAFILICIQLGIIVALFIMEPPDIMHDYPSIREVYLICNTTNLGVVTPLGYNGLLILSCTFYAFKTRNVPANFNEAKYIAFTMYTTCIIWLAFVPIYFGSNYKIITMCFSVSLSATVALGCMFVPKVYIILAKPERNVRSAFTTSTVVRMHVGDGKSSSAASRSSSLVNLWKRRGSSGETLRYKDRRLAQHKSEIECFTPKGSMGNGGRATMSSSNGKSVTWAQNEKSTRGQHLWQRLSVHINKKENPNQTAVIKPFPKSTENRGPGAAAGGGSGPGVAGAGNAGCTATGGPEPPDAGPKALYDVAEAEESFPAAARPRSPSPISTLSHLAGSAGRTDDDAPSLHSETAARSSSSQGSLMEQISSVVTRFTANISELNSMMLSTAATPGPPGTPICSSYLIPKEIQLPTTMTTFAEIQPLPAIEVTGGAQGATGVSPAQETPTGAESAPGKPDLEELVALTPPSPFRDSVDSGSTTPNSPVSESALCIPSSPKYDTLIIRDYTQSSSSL
Method: Radioligand Binding Assay at metabotropic glutamate receptor 5 in rat brain.
a) Membrane preparation: male Sprague Dawley rats (200-300 g, Charles River, Italy) were killed by cervical dislocation and the forebrain (cortex, striatum and hippocampus) was homogenized (2×20 sec) in 50 vols of cold 50 mM Tris buffer pH 7.4, using a Politron homogenizer (Kinematica). Homogenates were centrifuged at 48000×g for 15 min, resuspended in 50 vols of the same buffer, incubated at 37° C. for 15 min and centrifuged and resuspended two more times. The final pellets were frozen and stored at −80° C. until use.
b) Binding assay: pellets from rat forebrain were resuspended in 100 vols of 20 mM HEPES, 2 mM MgCl2, 2 mM CaCl2, pH 7.4. The membranes were incubated in a final volume of 1 ml for 60 min at 25° C. with 4 nM [^3H]MPEP in the absence or presence of competing drugs. Non-specific binding was determined in the presence of 10 μM MPEP (Spooren W. et al., Trends Pharmacol Sci. 22, 331-337, 2001). The incubation was stopped by the addition of cold Tris buffer pH 7.4 and rapid filtration through 0.5% polyethyleneimine pretreated Filtermat 1204-401 (Wallac) filters. The filters were then washed with cold buffer and the radioactivity retained on the filters was counted by liquid scintillation spectrometry. […]

[2] = system: conscious rats; test: Effect on cystometry in conscious rats (bladder volume capacity); type: in vivo, rat
Method: Male Sprague-Dawley rats [Crl: CD® (SD) IGS BR] of 300-400 g b.w. supplied by Charles River Italia were used. The animals were housed with free access to food and water and maintained on a forced 12-hour-light/12-hour-dark cycle at 22-24° C. of temperature, except during the experiment. To quantify urodynamic parameters in conscious rats, cystometrographic studies were performed according to the procedure previously reported (Guarneri et al., Pharmacol. Res. 24: 175, 1991).
Briefly, the rats were anaesthetised by intraperitoneal administration of 3 ml/kg of Equithensin solution (pentobarbital 30 mg/kg and chloral hydrate 125 mg/kg) and placed in a supine position. An approximately 10 mm long midline incision was made in the shaved and cleaned abdominal wall. The urinary bladder was gently freed from adhering tissues, emptied and then cannulated via an incision in the bladder body, using a polyethylene cannula (0.58 mm internal diameter, 0.96 mm external diameter) which was permanently sutured with silk thread. […]
On the day of the experiment, the rats were placed in modified Bollman cages, i.e., restraining cages that were large enough to permit the rats to adopt a normal crouched posture, but narrow enough to prevent turning around. […] The intraluminal-pressure signal during infusion of saline into the bladder (cystometrogram) was continuously recorded on a polygraph (Rectigraph-8K San-ei with BM614/2 amplifier from Biomedica Mangoni) or stored on PC by data acquisition system (PowerLab, Chart 4 software, AD Instruments). From the cystometrogram, bladder volume capacity (BVC) was evaluated. […] Basal BVC value was evaluated as the mean of the values observed in the cystometrograms recorded in an initial period of 30-60 minutes. […] The bladder infusion restarted and changes in BVC were evaluated from the mean values obtained in the cystometrograms observed during 1, 2, and 3 hours after treatment. […]
Each experimental group was composed of 4-11 animals. All data were expressed as mean±standard error. […]

Structure (SMILES) | Ki [1] [nM] | increase of bladder volume capacity ([2]; 1 mg/kg orally) | increase of bladder volume capacity ([2]; 3 mg/kg orally, statistically significant from the vehicle group after 3 hours from treatment) | MED (Minimal Effective Dose that induces statistically significant increase of bladder volume capacity) ([2]; oral)
Cc1ccc([N+](=O)[O-])c(N2CCC(=C/C=C/c3ccccc3)CC2)n1 [Example 1, 6-Methyl-3-nitro-2-[4-[(E)-3-phenylprop-2-enylidene]-1-piperidyl]pyridine] | 1.42 |  |  | 
Cc1nc(C#Cc2cccnc2)cs1 [MTEP] |  | slight increase | sustained increase | 3
